The record followed here is patent publication US8426598B2, “N-heterocyclic M1 receptor positive allosteric modulators” (Merck, Sharp & Dohme, Corp., priority 2008, dated 2013).

The test concerns the target T1, acetylcholine muscarinic M1 receptor (CHOnfat/hM1 cells) (Homo sapiens, UniProt P11229).
T1 construct: expressed in transfected cells; host or cells: CHOnfat cells (CHO, Geneticin selection)
T1 sequence (P11229 1-460): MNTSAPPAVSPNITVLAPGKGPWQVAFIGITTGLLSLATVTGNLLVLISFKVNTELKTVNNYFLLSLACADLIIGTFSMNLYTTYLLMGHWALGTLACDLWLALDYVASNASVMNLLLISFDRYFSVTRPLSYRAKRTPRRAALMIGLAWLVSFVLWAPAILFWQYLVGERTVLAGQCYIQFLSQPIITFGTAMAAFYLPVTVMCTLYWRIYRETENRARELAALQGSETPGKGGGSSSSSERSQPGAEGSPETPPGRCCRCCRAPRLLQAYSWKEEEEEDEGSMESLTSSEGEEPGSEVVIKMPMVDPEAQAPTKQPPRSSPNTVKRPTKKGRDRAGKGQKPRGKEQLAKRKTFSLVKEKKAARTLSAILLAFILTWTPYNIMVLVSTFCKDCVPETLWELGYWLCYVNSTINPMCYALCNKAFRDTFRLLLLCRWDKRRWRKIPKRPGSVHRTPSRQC
Put plainly: muscarinic FLIPR assay: intracellular calcium, potentiation of an EC20 concentration of acetylcholine. The settings on record: FLIPR Ca2+, 4 min preincubation, then EC20 acetylcholine (3 nM final), read-out: IP Value (inflection point). It is filed as cell-based. The method, then:
The assay studies the effect of one or several concentrations of test compounds on basal or acetylcholine-stimulated Ca^2+ levels using FLIPR.
Compounds are prepared and subjected to a preincubation period of 4 min. Thereafter, a single EC20 concentration of acetylcholine is added to each well (3 nM final). The intracellular Ca^2+ level of each sample is measured and compared to an acetylcholine control to determine any modulatory activity.
Cells: CHOnfat/hM1, hM2, hM3 or hM4 cells are plated 24 hr before the assay at a density of 18,000 cells/well (100 μL) in a 384 well plate. CHOnfat/hM1 and CHOnfat/hM3 Growth Medium: 90% DMEM (Hi Glucose); 10% HI FBS; 2 mM L-glutamine; 0.1 mM NEAA; Pen-Strep; and 1 mg/ml Geneticin, are added. For M2Gqi5CHOnfat and M4Gqi5CHOnfat cells, an additional 600 μg/ml hygromycin is added.
Equipment: 384 well plate, 120 μL addition plate; 96-well Whatman 2 ml Uniplate Incubator, 37° C., 5% CO2; Skatron EMBLA-384 Plate Washer; Multimek Pipetting System; Genesis Freedom 200 System; Mosquito System; Temo Nanolitre Pipetting System; and FLIPR^384 Fluorometric Imaging Plate Reader System are used.
Buffers. Assay Buffer: Hanks Balanced Salt Solution, with 20 mM Hepes, 2.5 mM Probenecid (Sigma P-8761) first dissolved in 1 N aqueous NaOH, 1% Bovine Serum Albumin (Sigma A-9647). Dye Loading Buffer: Assay Buffer plus 1% Fetal Bovine Serum and Fluo-4AM/Pluronic Acid Mixture. 2 mM Fluo-4AM ester stock in DMSO (Molecular Probes F-14202) Concentration of 2 μM in buffer for a final concentration of 1 μM in Assay. 20% Pluronic Acid Solution stock, with a concentration of 0.04% in Buffer, 0.02% in Assay.
65 μL of 2 mM Fluo-4AM are mixed with 130 μL of 20% Pluronic Acid. The resulting solution and 650 μL FBS is added to the assay buffer for a total volume of 65 mL. Positive Controls: 4-Br-A23187: 10 mM in DMSO; final concentration 10 μM. Acetylcholine: 10 mM in water, working stock at both 20 μM and 30 μM in assay buffer, final concentration of 10 μM. This is used to check the maximum stimulation of the CHOK1/hM1 cells. 20 μM (2×) acetylcholine is added in the preincubation part of the assay, and the 30 μM (3×) stock is added in the second part. (EC20)Acetylcholine: 10 mM in water, working stock of 9 nM (3×), and final concentration in assay is 3 nM. This is used after the preincubation with test compounds. Addition of the EC20 Acetylcholine to each well with a test compound will ascertain any modulator activity. 24 wells contain 3 nM Acetylcholine alone as a control.
Screening Plate: Compounds are titrated in 96-well plates (columns 2-11), 100% DMSO, started at a concentration of 15 mM (150× stock concentration), and 3-fold serial dilutions using Genesis Freedom200 System. Four 96-well plates are combined into a 384-well plate using Mosquito Nanolitre Pipetting System by transferring 1 μl of serial diluted compounds to each well, and 1 mM acetylcholine (100× stock concentration) were added as a control. Using Temo, 49 μl assay buffer is added to each well of the 384-well plate right before assay.
In a 96-well Whatman 2 ml Uniplate, 9 nM Acetylcholine (3×) is pipetted into wells corresponding to the screening compounds and into control wells. The 30 μM acetylcholine control (3×) is added into control wells and the 3× agonist plate is transferred into a 384-well plate.
Cells are washed three times with 100 μL of buffer, leaving 30 μL of buffer in each well. Using Multimek, 30 μL of Dye Loading Buffer is added into each well and incubated at 37° C., 5% CO2 for up to one hr.
After 60 min, the cells are washed three times with 100 μL of buffer, leaving 30 μL of buffer in each well. The cell plate, screening plate, and agonist addition plates are placed on the platform in the FLIPR and the door is closed. A signal test to check background fluorescence and basal fluorescence signal is performed. Laser intensity is adjusted if necessary. […]
As for `O=C(O)c1cn(Cc2ccc(-n3cccn3)cc2)c2c(F)ccc(F)c2c1=O` [Example 1], the EC50 is 261 nM.
With `O=C(O)c1cn(Cc2ccc(-n3cnc4ccccc43)cc2)c2c(F)ccc(F)c2c1=O` [Example 2] the figure was 58 nM; with `O=C(O)c1cn(Cc2ccc(N3CCCC3=O)cc2)c2cccc(F)c2c1=O` [Example 3, 5-Fluoro-4-oxo-1-[4-(2-oxopyrrolidin-1-yl)benzyl]-1,4-dihydroquinoline-3-carboxylic acid], 2500 nM; with `CC(C)C(=O)Nc1ccc(Cn2cc(C(=O)O)c(=O)c3c(F)cccc32)cc1` [Example 4, 5-Fluoro-1-[4-(isobutyrylamino)benzyl]-4-oxo-1,4-dihydroquinoline-3-carboxylic acid], 308 nM.
Then `O=C(O)c1cn(Cc2ccc(-n3ccnc3)cc2)c2cccc(F)c2c1=O` [Example 6], with 102 nM; and `O=C(O)c1cn(Cc2ccc(-n3cc(CCO)cn3)cc2)c2cccc(F)c2c1=O` [Example 19], with 32 nM.
Then `O=C(O)c1cn(Cc2ccc(-n3cnc(-c4ccccc4)c3)cc2)c2cccc(F)c2c1=O` [Example 31], with 40 nM.
`O=C(O)c1cn(Cc2ccc(-n3ccc4ncccc43)cc2)c2cccc(F)c2c1=O` [Example 36]: the EC50 was determined as 40 nM.
In the case of `O=C(O)c1cn(Cc2ccc(-n3cc(CO)cn3)cc2)c2cccc(F)c2c1=O` [Example 59], the EC50 worked out at 39 nM.
With `O=C(O)c1cn(Cc2ccc(-n3cc(CF)cn3)cc2)c2cccc(F)c2c1=O` [Example 62] the figure was 31 nM; with `Cc1nccn1-c1ccc(Cn2cc(C(=O)O)c(=O)c3cccc(F)c32)c(F)c1` [Example 109], 181 nM.
With `O=C(O)c1cn(Cc2ccc(-n3ncc4ccccc43)cc2F)c2c(F)cccc2c1=O` [Example 112] the figure was 97 nM; with `CC(=O)c1cn(-c2ccc(Cn3cc(C(=O)O)c(=O)c4cccc(F)c43)c(F)c2)c2ccccc12` [Example 120], 45 nM.
Regarding `CNc1ccc(Cn2cc(C(=O)O)c(=O)c3c(F)cccc32)cc1` [Example 149, 5-Fluoro-1-[4-(methylamino)benzyl]-4-oxo-1,4-dihydroquinoline-3-carboxylic acid], the EC50 stood at 749 nM.
With `CN(C)c1ccc(Cn2cc(C(=O)O)c(=O)c3c(F)cccc32)cc1` [Example 150, 1-[4-(dimethylamino)benzyl]-5-fluoro-4-oxo-1,4-dihydroquinoline-3-carboxylic acid], the EC50 amounted to 1070 nM.
As to `CCOC(=O)c1cn(Cc2ccc(-n3ccc(C(C)O)n3)cc2)c2cccc(F)c2c1=O` (centres unmarked) [Example 151, Ethyl 5-fluoro-1-{4-[3-(1-hydroxyethyl)-1H-pyrazol-1-yl]benzyl}-4-oxo-1,4-dihydroquinolin-3-carboxylate], the EC50 was 78 nM.
With `O=C(O)c1cn(Cc2ccc(-n3ccc(CF)n3)cc2)c2cccc(F)c2c1=O` [Example 152, 5-Fluoro-1-{4-[3-(fluoromethyl)-1H-pyrazol-1-yl]benzyl}-4-oxo-1,4-dihydroquinoline-3-carboxylic acid] the figure was 41 nM; with `CCOC(=O)c1cn(Cc2ccc(-n3ccc(C(F)F)n3)cc2)c2cccc(F)c2c1=O` [Example 153, Ethyl 1-{4-[3-(difluoromethyl)-1H-pyrazol-1-yl]benzyl}-5-fluoro-4-oxo-1,4-dihydroquinoline-3-carboxylate], 749 nM; with `CCOC(=O)c1cn(Cc2ccc(-n3cc(C#N)cn3)cc2)c2cccc(F)c2c1=O` [Example 155, Ethyl 1-[4-(4-cyano-1H-pyrazol-1-yl)benzyl]-5-fluoro-4-oxo-1,4-dihydroquinoline-3-carboxylate], 378 nM.
As to `C=Cc1cnn(-c2ccc(Cn3cc(C(=O)OCC)c(=O)c4c(F)cccc43)cc2)c1` [Example 156, Ethyl 5-fluoro-4-oxo-1-[4-(4-vinyl-1H-pyrazol-1-yl)benzyl]-1,4-dihydroquinoline-3-carboxylate], the EC50 was 25 nM.
